Experimental data from patent publication US20060015954A1, “GPR54 knock-out mammals and screening methods using them” (Paradigm Therapeutics Limited, priority 2002, published 2006).
Like-named read-outs stand apart in the source and are kept apart here. Ends that are not written are not given here.

Experiments:
[1] = system: LH levels in the pituitary; test: Depletion of LH levels in the pituitary after stimulation by exogenous GnRH; format: in vivo, mice; conditions: mutants, FIG. 15b
Method: (§1) Method: 25 ng of GnRH peptide was injected 4 times in 30 min intervals and the animals killed to collect blood and pituitary 30 min after last injection. All mice were killed between 11 am-1 pm.
(§2) Animal groups: 6 WT injected with just PBS (control), 6 WT injected with GnRH made in PBS and 6 HP injected with GnRH/PBS. All WT animals were staged and used at dioestrous (end of LH and FSH surge). All mice aged 2-4 months. This was repeated for LH and FSH measurements.
Measurement of the depletion of LH levels in the pituitary after stimulation by exogenous was measured. […] There were no deleterious effects of knocking out the gene in the mutants.

[2] = system: FSH secretion from the pituitary; test: Serum FSH assay after administration of exogenous GnRH; format: in vivo, mice
Method: (§3) 3) Administration of Exogenous GnRH and Effects on FSH and LH Secretion from the Pituitary
as §1, §2
Serum FSH assay: There is a 1.9-fold increase in FSH in serum of WT injected with GnRH compared to those injected with just PBS.

[3] = system: LH secretion from the pituitary; test: Serum LH assay after administration of exogenous GnRH; format: in vivo, mice
Method: as §3, §1, §2
Serum LH assay: There is a 5-fold increase in LH in serum of WT injected with GnRH compared to those injected with just PBS.

GPR54 = GPR54 (Homo sapiens, UniProt Q969F8); conditions: Lee et al 1999; Ohtaki et al 2001; cited from earlier work
GPR54, sequence (Q969F8 whole entry, species assumed): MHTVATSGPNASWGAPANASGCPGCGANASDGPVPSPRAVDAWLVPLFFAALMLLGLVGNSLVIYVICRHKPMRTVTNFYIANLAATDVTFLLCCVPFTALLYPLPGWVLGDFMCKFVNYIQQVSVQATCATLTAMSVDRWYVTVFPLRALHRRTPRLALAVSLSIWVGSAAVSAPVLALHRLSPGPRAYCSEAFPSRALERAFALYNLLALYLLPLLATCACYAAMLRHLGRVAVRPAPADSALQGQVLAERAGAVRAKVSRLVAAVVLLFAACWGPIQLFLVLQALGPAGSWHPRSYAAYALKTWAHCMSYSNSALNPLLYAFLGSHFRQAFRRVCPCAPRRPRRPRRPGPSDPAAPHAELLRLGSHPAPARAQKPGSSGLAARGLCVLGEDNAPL

oxytocin secretion = conditions: intravenous injection, female rat; Kotani et al 2001; cited from earlier work
melanomas = conditions: mice with melanomas injected in footpads, administration by perfusion; Ohtaki et al 2001; cited from earlier work
[4] = system: B16-L16 melanoma cells transfected with the GPR54 receptor; conditions: cited from earlier work
[5] = system: ovaries (ovulation of mature oocytes); test: Exogenous gonadotrophins: ovulation in GPR54 mutant females; format: in vivo, mice; conditions: 1000 iu PMS followed two days later by 1000 iu bHCG, n=6
Excerpt: This is consistent with the hypothesis that GPR54 receptors and ligands are acting at the level of the pituitary hypothalamic axis and not the end-organs.

[6] = HP (GPR54 knockout) mice injected with GnRH against WT injected with just PBS

GnRH: gonadotropin-releasing hormone peptide injected in PBS (QHWSYGLRPG; ends and bridges not checked; UniProt P01148 24-33, looked up)
LH levels in the pituitary after stimulation [1]: corresponding depletion of LH levels in the pituitary
increase in FSH in serum [2, 6]: 1.7 fold
increase in FSH in serum ([2]; WT mice injected with GnRH (25 ng x 4 at 30 min intervals) compared to WT injected with just PBS): 1.9 fold
increase in LH in serum [3, 6]: 5 fold
increase in LH in serum ([3]; WT mice injected with GnRH compared to WT injected with just PBS): 5 fold

galanin-like peptide: galanin-like peptide reported not to activate GPR54 (APAHRGRGGWTLNSAGYLLGPVLHLPQMGDQDGKRETALEILDLWKAIDGLPYSHPPQPS; Galanin-like peptide; UniProt Q9UBC7 25-84, looked up)
activation of GPR54 (GPR54): neither galanin nor galanin-like peptide activate GPR54

kisspeptin-10: kisspeptin peptide injected intravenously in female rat (YNWNSFGLRF; ends and bridges not checked; UniProt Q15726 112-121, looked up)
oxytocin secretion (oxytocin secretion): stimulates oxytocin secretion

metastin: 54 amino acid kisspeptin, product of the Kiss-1 gene, natural ligand of GPR54 (GTSLSPPPESSGSPQQPGLSAPHSRQIPAPQGAVLVQREKDLPNYNWNSFGLRF; ends and bridges not checked; UniProt Q15726 68-121, looked up)
metastases (melanomas): significantly decreased metastases
cell motility ([4]; B16-L16 melanoma cells transfected with the GPR54 receptor): inhibits motility
cell motility ([4]; mock-transfected B16-L16 melanoma cells): not in mock-transfected cells

B1: bHCG: beta human chorionic gonadotrophins (protein, UniProt P0DN86 21-165, looked up)
Choriogonadotropin subunit …: SKEPLRPRCRPINATLAVEKEGCPVCITVNTTICAGYCPTMTRVLQGVLPALPQVVCNYRDVRFESIRLPGCPRGVNPVVSYAVALSCQCALCRRSTTDCGGPKDHPLTCDDPRFQDSSSSKAPPPSLPSPSRLPGPSDTPILPQ
mutant females with ovulation of mature oocytes [5]: 50%
